Earlier results in US20200046722A1, “METHOD AND COMPOSITION FOR TREATING EATING DISORDERS” (India Globalization Capital, Inc., priority 2017, published 2020).

Columns and labels:
[1] = system: patients with cancer related anorexia-cachexia syndrome; conditions: at the dosage administered
[2] = system: cats; conditions: versus placebo

SMILES | appetite versus placebo [1] | patient's quality of life versus placebo [1] | appetite in comparison with placebo [2] | food ingested in comparison with placebo [2]
CCCCCc1cc(O)c2c(c1)OC(C)(C)[C@@H]1CCC(C)=C[C@@H]21 [Delta-9-tetrahydrocannabinol (THC), Delta-9-tetrahydrocannabinol] | no difference | no difference |  | 
CN1CCN2c3ncccc3Cc3ccccc3C2C1 (stereo not drawn) [mirtazapine, 1,2,3,4,10,14b-hexahydro-2-methylpyrazino[2,1-α]pyrido[2,3-c]benzazepine] |  |  | greater appetite | ingested significantly more food
